Measurements reported in patent publication US6737383B1, “Herbicidal oxadiazolidines” (priority 1999, dated 2004).

What was measured:
[1] = system: bedstraw; experiment: Test B pre/postemergence bedstraw; assay type: in vivo, Galium aparine
Method in brief: (§1)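 Herbicidal effect was estimated by eye on a ten-point control scale after plants spent twelve to sixteen days in a greenhouse following soil or foliar treatment. Foliar sprays targeted plants at one to four leaves; all doses were formulated in a non-phytotoxic solvent with surfactant.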

[2] = system: wheat; experiment: Test B pre/postemergence wheat; assay type: in vivo, Triticum aestivum
Method in brief: as §1

[3] = system: wild oat; experiment: Test B pre/postemergence wild oat; assay type: in vivo, Avena fatua
Method in brief: as §1

[4] = system: blackgrass; experiment: Test B pre/postemergence blackgrass; assay type: in vivo, Alopecurus myosuroides
Method in brief: as §1

[5] = system: velvetleaf; experiment: Test B pre/postemergence velvetleaf; assay type: in vivo, Abutilon theophrasti
Method in brief: as §1

[6] = system: sugar beet; experiment: Test B pre/postemergence sugar beet; assay type: in vivo, Beta vulgaris
Method in brief: as §1

[7] = system: corn; experiment: Test B pre/postemergence corn; assay type: in vivo, Zea mays
Method in brief: as §1

[8] = system: duck salad; experiment: Test B flood test duck salad; assay type: in vivo, Heteranthera limosa
Method in brief: (§2)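 Read-out is a visual response score from 0 (no effect) to 10 (complete control), assigned by comparison with untreated controls. Treatment was applied at the 2-leaf stage, and plants stayed in the greenhouse for twelve to sixteen days before scoring.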

[9] = system: pigweed; experiment: Test B pre/postemergence pigweed; assay type: in vivo, Amaranthus retroflexus
Method in brief: as §1

[10] = system: smallflower flatsedge; experiment: Test B flood test smallflower flatsedge; assay type: in vivo, Cyperus difformis
Method in brief: as §2

[11] = system: morningglory; experiment: Test B pre/postemergence morningglory; assay type: in vivo, Ipomoea hederacea
Method in brief: as §1

[12] = system: surinam grass; experiment: Test B pre/postemergence surinam grass; assay type: in vivo, Brachiaria decumbens
Method in brief: as §1

[13] = system: crabgrass; experiment: Test B pre/postemergence crabgrass; assay type: in vivo, Digitaria sanguinalis
Method in brief: as §1

[14] = system: purple nutsedge; experiment: Test B pre/postemergence purple nutsedge; assay type: in vivo, Cyperus rotundus
Method in brief: as §1

[15] = system: rape; experiment: Test B pre/postemergence rape; assay type: in vivo, Brassica napus
Method in brief: as §1

[16] = system: cocklebur; experiment: Test B pre/postemergence cocklebur; assay type: in vivo, Xanthium strumarium
Method in brief: as §1

[17] = Postemergence, Rate 62 g/ha, scale 0 to 10, 0 is no effect, 10 is complete control
[18] = Postemergence, Rate 250 g/ha, scale of 0 to 10, 0 is no effect, 10 is complete control
[19] = Preemergence, Rate 62 g/ha, scale of 0 to 10 where 0 is no effect and 10 is complete control
[20] = Postemergence, Rate 125 g/ha, scale of 0 to 10 where 0 is no effect and 10 is complete control
[21] = Preemergence, Rate 125 g/ha, scale of 0 to 10 where 0 is no effect and 10 is complete control
[22] = Preemergence, Rate 250 g/ha, scale 0 to 10 (0 no effect, 10 complete control)
[23] = Preemergence, Rate 500 g/ha, scale of 0 to 10 where 0 is no effect and 10 is complete control
[24] = Postemergence, Rate 500 g/ha, scale of 0 to 10 where 0 is no effect and 10 is complete control
[25] = Rate 62 g/ha, flood test species, Pre-emergence, visual evaluation after twelve to sixteen days
[26] = Rate 125 g/ha, under heading Pre-emergence, flood test species, visual evaluation after twelve to sixteen days
[27] = Rate 250 g/ha, Pre-emergence (flood test species), scale 0 to 10, 0 is no effect, 10 is complete control
[28] = Rate 500 g/ha, Pre-emergence section of Table B, 0 to 10 scale (0 no effect, 10 complete control)

CC(C)N(C(=O)n1oc(=O)n(Cc2nnc(Cl)s2)c1=O)c1ccc(F)cc1 [Compound 646]
4: Plant response rating, Morningglory [11, 24]
0: Plant response rating, Bedstraw [1, 17] | Bedstraw plant response rating [1, 18] | Bedstraw plant response rating [1, 19] | Plant response rating, Wheat [2, 17] | Wheat plant response rating [2, 20] | Wheat plant response rating [2, 19] | Wheat plant response rating [2, 21] | Plant response rating, Wheat [2, 22] | Plant response rating, Wheat [2, 23] | Plant response rating, Wild oats [3, 17] | Wild oats plant response rating [3, 20] | Wild oats plant response rating [3, 19] | Wild oats plant response rating [3, 21] | Plant response rating, Wild oats [3, 22] | Plant response rating, Wild oats [3, 23] | Plant response rating, Blackgrass [4, 17] | Blackgrass plant response rating [4, 20] | Blackgrass plant response rating [4, 18] | Plant response rating, Blackgrass [4, 24] | Blackgrass plant response rating [4, 19] | Blackgrass plant response rating [4, 21] | Plant response rating, Blackgrass [4, 22] | Plant response rating, Blackgrass [4, 23] | Plant response rating, Velvetleaf [5, 17] | Velvetleaf plant response rating [5, 20] | Velvetleaf plant response rating [5, 19] | Velvetleaf plant response rating [5, 21] | Plant response rating, Velvetleaf [5, 22] | Plant response rating, Velvetleaf [5, 23] | Plant response rating, Sugarbeets [6, 17] | Sugarbeets plant response rating [6, 20] | Sugarbeets plant response rating [6, 19] | Sugarbeets plant response rating [6, 21] | Plant response rating, Sugarbeets [6, 22] | Plant response rating, Sugarbeets [6, 23] | Plant response rating, Corn [7, 17] | Corn plant response rating [7, 20] | Corn plant response rating [7, 18] | Plant response rating, Corn [7, 24] | Corn plant response rating [7, 19] | Corn plant response rating [7, 21] | Plant response rating, Corn [7, 22] | Plant response rating, Corn [7, 23] | Plant response rating, Ducksalad (0 to 10 scale, 0 is no effect, 10 is complete control) [8, 25] | Ducksalad plant response rating (0 to 10 scale, 0 is no effect, 10 is complete control) [8, 26] | Ducksalad plant response rating [8, 27] | Ducksalad plant response rating [8, 28] | Plant response rating, Redroot pigweed [9, 17] | Redroot pigweed plant response rating [9, 20] | Redroot pigweed plant response rating [9, 19] | Redroot pigweed plant response rating [9, 21] | Plant response rating, Redroot pigweed [9, 22] | Plant response rating, Redroot pigweed [9, 23] | Plant response rating, S. Flatsedge (0 to 10 scale, 0 is no effect, 10 is complete control) [10, 25] | S. Flatsedge plant response rating (0 to 10 scale, 0 is no effect, 10 is complete control) [10, 26] | S. Flatsedge plant response rating [10, 27] | S. Flatsedge plant response rating [10, 28] | Plant response rating, Morningglory [11, 17] | Morningglory plant response rating [11, 20] | Morningglory plant response rating [11, 18] | Morningglory plant response rating [11, 19] | Morningglory plant response rating [11, 21] | Plant response rating, Morningglory [11, 22] | Plant response rating, Morningglory [11, 23] | Plant response rating, B. signalgrass [12, 17] | Plant response rating, B. signalgrass [12, 20] | B. signalgrass plant response rating [12, 18] | Plant response rating, B. signalgrass [12, 24] | B. signalgrass plant response rating [12, 19] | B. signalgrass plant response rating [12, 21] | Plant response rating, B. signalgrass [12, 22] | Plant response rating, B. signalgrass [12, 23] | Plant response rating, Crabgrass [13, 17] | Crabgrass plant response rating [13, 20] | Crabgrass plant response rating [13, 18] | Crabgrass plant response rating [13, 21] | Plant response rating, Crabgrass [13, 22] | Plant response rating, Crabgrass [13, 23] | Plant response rating, Nutsedge [14, 17] | Nutsedge plant response rating [14, 20] | Plant response rating, Nutsedge [14, 24] | Nutsedge plant response rating [14, 19] | Nutsedge plant response rating [14, 21] | Plant response rating, Nutsedge [14, 22] | Plant response rating, Nutsedge [14, 23] | Plant response rating, Rape [15, 17] | Rape plant response rating [15, 20] | Plant response rating, Rape [15, 24] | Rape plant response rating [15, 19] | Rape plant response rating [15, 21] | Plant response rating, Rape [15, 22] | Plant response rating, Rape [15, 23] | Plant response rating, Cocklebur [16, 17] | Cocklebur plant response rating [16, 20] | Cocklebur plant response rating [16, 18] | Plant response rating, Cocklebur [16, 24] | Cocklebur plant response rating [16, 19] | Cocklebur plant response rating [16, 21] | Plant response rating, Cocklebur [16, 22] | Plant response rating, Cocklebur [16, 23]
1: Plant response rating, Crabgrass [13, 24]
